Data reported in US20250143995A1, “ACTIVE AGENT MODULATING THE ACTIVITY OF AN ION CHANNEL FOR USE IN REGULATION OF SKIN PIGMENTATION” (Cutaneon - Skin & Hair Innovations GmbH, priority 2022, published 2025).

Experiments:
Format in all cases: cell-based
tyrosinase = experiment: In situ tyrosinase activity in ex vivo human skin organ culture; conditions: after 3 days
Experimental: (§1) Samples of human abdominal, temporal, and occipital skin were obtained with written patient consent and under ethical approval from healthy adult human subjects during elective plastic surgery performed for cosmetic reasons. Full-thickness human skin samples were prepared as 4-6 mm punches, placed on filter paper, and cultured at the air-liquid interphase under serum-free conditions in William's E medium supplemented only with insulin, hydrocortisone and L-glutamine, as described previously. […]
(§2) Images were then obtained with a digital microscope (Keyence). Quantitative histomorphometric analysis was performed by assessing the relative intensity and the area of melanin stain in standardized reference areas with ImageJ (NIH; Bethesda, MD, USA). Briefly, for each parameter evaluated, multiple non-consecutive skin sections (at least 280 μm apart from each other) per punch biopsy were stained. Two skin punch biopsies were analyzed per experimental group unless indicated otherwise. The melanin content was then calculated based on the product of the fraction of area occupied by melanin and the mean shade of gray of the melanin, as described in detail elsewhere. […]

human skin organ culture [1] = experiment: Epidermal melanin by Warthin-Starry histochemistry in ex vivo human skin organ culture; conditions: topical DMP 12.5 mM
Experimental: as §1, §2

gp100 = experiment: gp100-specific immunoreactivity in ex vivo human skin organ culture; conditions: after 3 days
Experimental: as §1, §2

human skin organ culture [2] = experiment: Epidermal melanin by Fontana Masson histochemistry in ex vivo human skin organ culture
Experimental: Samples of human abdominal, temporal, and occipital skin were obtained with written patient consent and under ethical approval from healthy adult human subjects during elective plastic surgery performed for cosmetic reasons. Full-thickness human skin samples were prepared as 4-6 mm punches, placed on filter paper, and cultured at the air-liquid interphase under serum-free conditions in William's E medium supplemented only with insulin, hydrocortisone and L-glutamine, as described previously.
For topical application of 2,5-dimethylpyrazine (DMP) (Sigma), a TRPM5 activator, a stock was prepared in ethanol and dissolved at 37° C. at a final concentration of 12.5 mM in a 50% v/v solution of Isopropanol in PBS containing 1 g/mL of Polyethylene glycol 6000. For topical application of triphenylphosphine oxide (TPPO) (Sigma), and TRPM5 inhibitor, a stock was prepared in ethanol and dissolved at 37° C. at a final concentration of 1.5 mM in a 50% v/v solution of Isopropanol in PBS containing 1 g/mL of Polyethylene glycol 6000. […]
as §2
For Fontana Masson stain, ethanol/acetic acid-fixed human skin/HF frozen sections were rinsed in two and three washes of Tris-buffered saline and distilled water, respectively. […] Image acquisition and quantitative histomorphometric analysis were performed similar to as described for the Warthin-Starry technique.

[3] = topical DMP 12.5 mM, compared to vehicle
[4] = TPPO 1.5 mM combined with DMP 12.5 mM, topical

intensity level of tyrosinase activity in the basal epidermal layers (tyrosinase; [3])	effect on the DMP-induced increase of tyrosinase activity in the basal epidermal layers (tyrosinase; [4])	SMILES	melanin content in the basal layer and in the suprabasal layers (Warthin-Starry technique) (human skin organ culture [1]; 3 days)	epidermal melanin content (Warthin-Starry technique) (human skin organ culture [1]; after 3 days, compared to vehicle)	intensity level of gp100-specific IR in the basal epidermal layers (gp100; [3])	melanin content in the basal layer and in the suprabasal layers (Fontana-Masson technique) (human skin organ culture [2]; topical DMP 12.5 mM, 3 days)	epidermal melanin content (Fontana-Masson technique) (human skin organ culture [2]; topical DMP 12.5 mM, after 3 days, compared to vehicle)	effect on the DMP-induced increase of gp100-specific IR in the basal epidermal layers (gp100; [4])	effect on the DMP-induced increase of epidermal melanin content (Fontana-Masson technique) (human skin organ culture [2]; TPPO 1.5 mM combined with DMP 12.5 mM, topical, after 3 days)
markedly increases		Cc1cnc(C)cn1 [DMP, 2,5-dimethylpyrazine]	increased	markedly increases	markedly increases	increased	markedly increases		
	prevented the effect	O=P(c1ccccc1)(c1ccccc1)c1ccccc1 [TPPO, triphenylphosphine oxide]						prevented the effect	prevented the effect
